Laboratory results taken from PubChem BioAssay (NCI).
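Test compounds were applied to cells in 96-well plates for 48 hours at 5 doses. At the GI50, growth is halved. At the TGI there is no net growth.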

Assays:
Assay in all cases: NCI anticancer screen, dose series, 48 h
SK-MEL-5 melanoma = system: SK-MEL-5 melanoma
OVCAR-3 ovarian = system: OVCAR-3 ovarian
MDA-MB-231 breast = system: MDA-MB-231 breast
KM12 colon = system: KM12 colon
786-0 renal = system: 786-0 renal
DU-145 prostate = system: DU-145 prostate
UO-31 renal = system: UO-31 renal
SK-MEL-28 melanoma = system: SK-MEL-28 melanoma
CCRF-CEM leukemia = system: CCRF-CEM leukemia
HL-60(TB) leukemia = system: HL-60(TB) leukemia

SMILES	GI50 (SK-MEL-5 melanoma) [µM]	TGI (SK-MEL-5 melanoma) [µM]	GI50 (OVCAR-3 ovarian) [µM]	TGI (OVCAR-3 ovarian) [µM]	GI50 (MDA-MB-231 breast) [µM]	TGI (MDA-MB-231 breast) [µM]	GI50 (KM12 colon) [µM]	TGI (KM12 colon) [µM]	GI50 (786-0 renal) [µM]	TGI (786-0 renal) [µM]	GI50 (DU-145 prostate) [µM]	TGI (DU-145 prostate) [µM]	GI50 (UO-31 renal) [µM]	TGI (UO-31 renal) [µM]	GI50 (SK-MEL-28 melanoma) [µM]	TGI (SK-MEL-28 melanoma) [µM]	GI50 (CCRF-CEM leukemia) [µM]	TGI (CCRF-CEM leukemia) [µM]	GI50 (HL-60(TB) leukemia) [µM]	TGI (HL-60(TB) leukemia) [µM]
Fc1cc2[nH]ncc2c2c3c(c(-c4cn[nH]c4C(F)(F)F)nc12)CCCC3	1.23	2.95	2.75	> 100	1.83	7.23	2.13	15.3	2	7.16	1.72	> 100	1.56	6.02	1.41	5.35	1.89	> 100		
N.N.N.N.N.[Co+3].[I-].[N-]=[N+]=[N-]	> 100	> 100	> 100	> 100			> 100	> 100	> 100	> 100			> 100	> 100	> 100	> 100	> 100	> 100		
Cc1cc(S(=O)(=O)Nc2nc3ccccc3o2)c(SCc2ccccc2)cc1Cl	16.7	33.4	16.7	42.1	35.9	90.5	18.4	43.4	20.8	47.2	26.5	77.9	32.9	> 100	25.6	62.9			36.9	> 100
O=C1C2Nc3ccccc3SC2C(=O)N1c1ccc(Br)cc1 (stereo not given)		55.3		99.5				> 100		46.6				68.2		> 100				
CN1c2ccccc2N(C(=O)c2ccc([N+](=O)[O-])cc2)C(CC(=O)O)c2cccn21 (stereo not given)		> 100		> 100				> 100		> 100				> 100		> 100		> 100		> 100
CC(C)C1=CC(=O)C(C)(C2C(O)CC3(C)C4CC=C5C(CCC(OC6OC(CO)C(O)C(O)C6OC6OC(C)C(O)C(O)C6O)C5(C)C)C4(C)C(=O)CC23C)O1 (stereo not given)		> 100		> 100		> 100		> 100		> 100		> 100		> 100		> 100		> 100		
CCC(C)CCOC(=O)c1ccc(N=Cc2ccc(C=Nc3ccc(C(=O)OCCC(C)CC)cc3)cc2)cc1 (stereo not given)		> 100		> 100						> 100				> 100		> 100		> 100		> 100
O=C(N/C(=C\c1ccc(Cl)cc1)c1nc2ccccc2[nH]1)c1ccccc1		35.3		49				33.6		43.9				42.2		36.4		57.3		
Cc1cc(NCCCCCCCCNc2cc(C)nc3cc(N)ccc23)c2ccc(N)cc2n1		34.8		37.4				37.8		53.7				> 100		48.3		30.8		4.88
